According to US20110300147A9, “Inhibiting tumor cell invasion, metastasis and angiogenesis” (The Scripps Research institute, priority 2005, published 2011):
Peptide text beside a SMILES is read from it. * marks the point of attachment. Doxorubicin(3'-N) = COc1cccc2c1C(=O)c1c(O)c3c(c(O)c1C2=O)C[C@@](O)(C(=O)CO)C[C@@H]3O[C@H]1C[C@H](N*)[C@H](O)[C@H](C)O1; Boc = CC(C)(C)OC(=O)*

Assays:
[1] = tested on: legumain-expressing 293 (293L) cells; assay: UV-induced apoptosis of legumain-expressing 293 cells; assay type: cell-based, human; settings: dead cells after UV treatment as a function of AEPI-5 concentration
[2] = tested on: legumain-expressing 293 (293L) cells; assay: TNF-α induced cell death with or without AEPI-5; assay type: cell-based, human; settings: with or without AEPI-5, function of TNF-α concentration
cancer cells = assay: chemo-sensitizing cytotoxic assay, TNF-α plus legumain inhibitor; assay type: cell-based; settings: compared among AEPI-1 to AEPI-5
Experimental: Chemo-sensitizing Cytotoxic Assay. Cancer cells were prepared for the assay as follows. The cells were centrifuged at 800 rpm for 10 minutes, resuspended in DMEM to a density of 1.0×10^5 cells/ml. Approximately 5 ml of cells were used per assay plate. Cells (100 ul) were added to a 96-well flat bottom plate (10,000 cells/well, all the inner wells) and 100 ul of media was added to the outer wells. The plates were incubated at 37° C. overnight. AEPI dilutions were prepared using a 96 well round bottom plate and medium as the diluent. After overnight incubation, the media was removed from the cancer cell assay plate, and the selected AEPI was added at the selected dilution or concentration. An additional 200 ul of media was added to the outer wells. Plates were incubated overnight at 37° C. XTT reagent (or other cell viability reagent) was prepared in phenol red free media. The media was removed from cells and 200 ul of fresh media containing the XTT reagent was added to all wells. The plates were incubated for 30 min to 4 hrs and cell viability was determined by reading the plates according to manufacturer specifications.

[3] = target: T1, legumain in MDA MB231 breast cancer cells (Homo sapiens, UniProt Q99538); assay: AEPI inhibitory assay, intracellular legumain activity; assay type: cell-based
T1 construct: endogenous in cells; host or cells: MDA-MB-231 human breast cancer cells
T1 sequence (Q99538 18-323): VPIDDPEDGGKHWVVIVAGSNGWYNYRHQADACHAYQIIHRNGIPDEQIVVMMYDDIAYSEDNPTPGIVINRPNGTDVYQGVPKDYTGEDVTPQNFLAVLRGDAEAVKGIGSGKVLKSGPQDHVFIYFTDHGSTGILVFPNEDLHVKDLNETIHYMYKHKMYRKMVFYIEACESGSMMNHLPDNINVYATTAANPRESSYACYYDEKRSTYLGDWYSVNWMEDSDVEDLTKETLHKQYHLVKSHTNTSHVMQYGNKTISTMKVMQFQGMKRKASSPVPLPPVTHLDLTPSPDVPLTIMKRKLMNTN
Experimental: AEPI Inhibitory Assay. Cancer cells were centrifuged at 800 rpm for 10 minutes and resuspended in DMEM to a density of 1.0×10^5 cells/ml. Approximately 5 ml of cells is used per assay plate. Cells (100 ul) were added to a 96-well plat bottom plate (10,000 cells/well, all the inner wells) and 100 ul of media was added to the outer wells. The cells were incubated at 37° C. overnight. The inhibitor compounds were diluted in a 96 well round bottom plate and the old media was removed from the cancer cell assay plate. The inhibitor (100 ul) was added to the cell assay plate and 200 ul of media was added to the outer wells. One to three days after the cancer cells were exposed to the inhibitor, the AEP activity was assessed as follows. Cells were detached with Trypsin-free cell-cell detachment media and transfer to Eppendorf tubes. Cells were then disrupted and the AEPI substrate was added to the cell lysate. This assay mixture was then incubated for an appropriate period of time and the amount of activated substrate was measured with fluorometer.

legumain+ 293 cells [4] = assay: modified Boyden chamber invasion assay; assay type: cell-based, human
Experimental: (§1) Cell invasion and mobility assays. Cell migration and invasion assays were performed as described with modifications (Albini et al., 1987). Stock solutions (15 mg/ml) of Matrigel basement membrane matrix (Becton Dickinson, Bedford, Mass.) were stored at −80° C. in 100 μl aliquots. After thawing on ice, the stock was diluted 1:50 with cold serum-free culture media and immediately applied to each membrane insert (8 μm pore) that formed the upper chambers of the multi-well invasion assay plate. The Matrigel was incubated overnight in a sterile laminar tissue culture hood. The membranes were hydrated for 2 hours with 250 μl of serum-free medium and excess medium was removed by aspiration. Medium containing 10% FBS was added to the bottom of each well. A suspension of 10^5 cells in 150 μl of serum-free medium was added to the upper chamber and incubated for 12 hours at 37° C., 5% CO2. At the indicated times, the membrane inserts were removed from the plate and the non-invading cells were removed from the upper surface. Membrane associated cells were stained with 0.09% crystal violet for 30 minutes and washed twice with PBS. The invading cells were counted microscopically. Cell mobility assays were performed in a similar manner except the membrane inserts were not coated with Matrigel, and duration was shortened. […]

control 293 cells = assay: WST-1 cytotoxicity assay, control 293 cells; settings: control 293 cells, 48 h
Experimental: (§2) Cytotoxic assays. The WST-1 cell proliferation reagent (Roche Molecular Chemicals, Germany) was used to determine cell proliferation by quantification of cellular metabolic activity. Control 293 cells and legumain+ 293 cells were cultivated in microtiter plates (5×10^3 cells per well in 100 μl) and were incubated with serial concentrations of legubicin or doxorubicin for 48 h. Subsequently, 10 μl of WST-1 solution (1 mg/ml WST-1, 25 μM -methyldibenzopyrazine methyl sulfate) was added per well, and mixtures were incubated for an additional 4 h. The tetrazolium salt WST-1 (4-[3-(4-lodophenyl)-2-(4-nitrophenyl)-2H-5-tetrazolio-1,3-benzene disfonate) was cleaved by the mitochondrial succinate-tetrazolium-reductase system to formazan in cells which directly correlates to the number of metabolically viable cells in the culture. The amount of formazan salt was quantified in three replicates by absorbance at 450 nm using a micro-plate reader (Molecular Devices, Palo Alto, Calif.).
(§3) Cytotoxicity assays. The WST-1 cell proliferation reagent (Roche Molecular Chemicals, Germany) was used to determine cell proliferation by quantization of cellular metabolic activity. […] The amount of formazan salt was quantified in three replicates by absorbance at 450 nm using a micro-plate reader (Molecular Devices, Palo Alto, Calif.).

[5] = tested on: CT26 murine colon carcinoma; assay: CT26 syngeneic murine colon carcinoma model; assay type: in vivo, Balb/c mice
From the text: Animal models. […] Balb/C mice aged 4 to 6 weeks from the breeding colony were inoculated with 500,000 syngeneic CT26 tumor cells per site subcutaneously in the back. […] Treatment was repeated at 2 day intervals. The human 293 tumor models were generated in WEHI nude mice (The Scripps Research Institute breeding colony). […] Tumor growth and physical signs were monitored daily including any gross evidence of tumor necrosis, local tumor ulceration as well as evidence of toxicity including mobility, response to stimulus, eating, and weight of each animal. These procedures have been reviewed and approved by the Institutional Animal Care and Use Committee at The Scripps Research Institute. The work was conducted in The Scripps Research Institute facilities which are accredited by the Association for the Assessment and Accreditation of Laboratory Animal Care. The Scripps Research Institute maintains an assurance with the Public Health Service, is registered with the United States Department of Agriculture and is in compliance with all regulations relating to animal care and welfare.
Animal models. […] Treatment was three times per week for two weeks.

legumain+ 293 cells [6] = assay: WST-1 cytotoxicity assay, legumain+ 293 cells; settings: 48 h
Experimental: as §2, §3

[7] = target: T2, cell surface bound legumain (Homo sapiens, UniProt Q99538); assay: gelatin zymogram, activation of progelatinase A by cells expressing legumain; assay type: cell-based; settings: zymogen incubated with cells 10 minutes
T2 construct: expressed in transfected cells; host or cells: 293 cells stably expressing human legumain (legumain+ 293)
T2 sequence (Q99538 18-323): as above
Experimental: Zymogram. Control 293 cells and legumain+ 293 cells were plated into 96 wells plates at a cell density of 4,000 cells/well. The cells were allowed to attach overnight, then were serum starved for four hours. Zymogen forms of metalloproteinase 2 or 9 (Chemicon, Temecula, Calif.) were added at concentration of 0.1 μg/well with 50 μl reaction buffer (39.5 mM citric acid, 121 mM Na2HPO4, pH 5.8, 1 mM EDTA, and 0.8% […]) and the reactions were continued for 10 minutes. The reactants were collected and mixed with an equal volume of SDS sample buffer and held at room temperature for 10 minutes then applied to a zymogram gel (10% Tris-Glycine gel with 0.1% gelatin substrate). After electrophoresis, the gel was washed briefly and incubated with 2.5% (v/v) Triton X-100 at room temperature for 30 minutes with gentle agitation. Digestion of the incorporated gelatin by activated collagenase was conducted in buffer ([…], pH 7.25, 200 mM NaCl, […], 0.05% Brij-35, 0.02% NaN3) overnight. The gel was stained with Coomassie Blue R250 (Novex, San Diego, Calif.) and the presence of a protease was readily observed as a clear band.
Activation of progelatinase A by legumain. […] Zymogen forms of gelatinase A and B were incubated with the cells for 10 minutes, and the reaction products were analyzed by zymography. […] Moreover, no effect of legumain on zymogen gelatinase B was detected.

[8] = tested on: legumain-promoted cancer cell invasion; assay: cancer cell invasion assay with recombinant legumain protein; assay type: cell-based; settings: recombinant legumain protein added
Experimental: as §1

legumain+ 293 cells [9] = assay: in vitro migration assay; assay type: cell-based, human
Experimental: as §1

## CCOC(=O)C1OC1C(=O)N(CC(N)=O)NC(=O)C(C)NC(=O)C(C)NC(C)=O [AEPI-5, N-acetyl-Ala-Ala-AzaAsn-(S,S)-EPCOOEt]
[1]
  UV-induced apoptosis: sensitizes legumain-expressing 293 cells to UV-induced apoptosis
[2]
  TNF-α induced cell death: sensitizes MDA-MB-231 human breast cancer cells to TNF-α induced cell death
Cancer cells
  cancer cell death on combined treatment with TNF-α: higher levels of cancer cell death
[3]; compared among AEPI-1 to AEPI-5
  inhibition of legumain activities in MDA MB231 breast cancer cells: greatest inhibition
[3]; preliminary results
  cell permeability: sufficiently cell permeable

## CC(C)C[C@H](NC(=O)[C@H]1O[C@@H]1C(=O)O)C(=O)NCCCCN=C(N)N [E64, reference compound]
legumain+ 293 cells [4]
  increased invasion of extracellular matrix by legumain+ cells: without effect

## COc1cccc2c1C(=O)c1c(O)c3c(c(O)c1C2=O)C[C@@](O)(C(=O)CO)C[C@@H]3O[C@H]1C[C@H](NC(=O)[C@H](CC(C)C)NC(=O)[C@H](CC(N)=O)NC(=O)[C@H](C)NC(=O)[C@H](C)NC(=O)OC(C)(C)C)[C@H](O)[C@H](C)O1 [legubicin, N-(-t-Butoxycarbonyl-L-alanyl-L-alanyl-L-asparaginyl-L-leucyl)doxorubicin] (Boc-AANL-{Doxorubicin(3'-N)})
Control 293 cells
  cytotoxic effect relative to that of doxorubicin: less than 1%
[5]; i.p. 5 mg/kg three times at 2 day intervals
  toxicity: little evidence of toxicity
[5]; single injection of 5 mg/kg
  injury in organs that express legumain (kidney, liver): no injury was evident
legumain+ 293 cells [6]
  cytotoxic effect on legumain+ 293 cells: profound cytotoxic effect

## cystatin
[7]
  generation of the 62 kDa active gelatinase A by cells expressing legumain: inhibited
legumain+ 293 cells [4]
  increased invasion of extracellular matrix by legumain+ cells: inhibited
[8]
  legumain-promoted cell invasion: partially inhibited
legumain+ 293 cells [9]
  enhanced migration of legumain+ 293 cells: inhibited
